In article PMC5593877, “Identification of endoxylanase XynE from Clostridium thermocellum as the first xylanase of glycoside hydrolase family GH141” (Scientific Reports, 2017):

Target: T1, Xyn141E (Acetivibrio thermocellus, UniProt A3DHG8)
T1 construct: gene Cthe_2195
Assay: HPAEC-PAD of hydrolysis products
Assay type: biochemical
Conditions: 200 µg/mL substrate, 100 µg/mL enzyme, 10 mM MOPS pH 6.5, 50 mM NaCl, 10 mM CaCl2, 60 °C, 16 h

T1 sequence (A3DHG8 entry or part of it): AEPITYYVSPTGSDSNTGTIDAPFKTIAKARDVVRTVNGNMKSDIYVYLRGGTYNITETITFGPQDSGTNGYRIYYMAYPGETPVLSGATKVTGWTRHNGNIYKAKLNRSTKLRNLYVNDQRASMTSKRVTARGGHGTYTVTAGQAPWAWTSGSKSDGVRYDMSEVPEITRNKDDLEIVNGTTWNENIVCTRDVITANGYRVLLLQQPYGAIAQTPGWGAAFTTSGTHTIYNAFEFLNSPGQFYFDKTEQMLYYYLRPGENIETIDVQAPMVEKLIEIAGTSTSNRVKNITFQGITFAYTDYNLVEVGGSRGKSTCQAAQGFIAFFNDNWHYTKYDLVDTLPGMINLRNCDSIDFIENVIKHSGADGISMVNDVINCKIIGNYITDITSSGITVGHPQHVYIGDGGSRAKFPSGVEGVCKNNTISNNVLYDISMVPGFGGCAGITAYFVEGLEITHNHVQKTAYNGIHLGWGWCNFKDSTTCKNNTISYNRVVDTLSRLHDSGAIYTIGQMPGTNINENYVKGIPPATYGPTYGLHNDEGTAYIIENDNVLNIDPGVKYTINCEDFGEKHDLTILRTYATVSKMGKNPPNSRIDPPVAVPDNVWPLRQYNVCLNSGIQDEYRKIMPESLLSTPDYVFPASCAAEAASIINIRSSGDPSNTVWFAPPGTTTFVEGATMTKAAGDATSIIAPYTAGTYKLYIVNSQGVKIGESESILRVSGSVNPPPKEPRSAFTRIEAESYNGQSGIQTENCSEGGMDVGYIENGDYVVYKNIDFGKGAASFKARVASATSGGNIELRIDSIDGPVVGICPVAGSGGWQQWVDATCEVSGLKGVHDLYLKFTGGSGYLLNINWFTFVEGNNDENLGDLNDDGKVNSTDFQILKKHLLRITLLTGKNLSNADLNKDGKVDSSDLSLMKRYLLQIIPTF

OC1OC[C@@H](O[C@@H]2OC[C@@H](O[C@@H]3OC[C@@H](O[C@@H]4OC[C@@H](O)[C@H](O)[C@H]4O)[C@H](O)[C@H]3O)[C@H](O)[C@H]2O)[C@H](O)[C@H]1O (some centres unmarked) [X4, xylotetraose]
HPAEC-PAD of hydrolysis products: Xyn141E was able to hydrolyse X5 and X4 to X2 and X3 or X2, respectively.

OC1OC[C@@H](O[C@@H]2OC[C@@H](O[C@@H]3OC[C@@H](O[C@@H]4OC[C@@H](O[C@@H]5OC[C@@H](O)[C@H](O)[C@H]5O)[C@H](O)[C@H]4O)[C@H](O)[C@H]3O)[C@H](O)[C@H]2O)[C@H](O)[C@H]1O (some centres unmarked) [X5, xylopentaose]
HPAEC-PAD of hydrolysis products: Xyn141E was able to hydrolyse X5 and X4 to X2 and X3 or X2, respectively.
